# Results: ChEMBL document CHEMBL1145498, “A systematic interaction map of validated kinase inhibitors with Ser/Thr kinases” (Proc Natl Acad Sci U S A, 2007)
# What was measured:
# [1] = molecular target: Dual specificity mitogen-activated protein kinase kinase 2 (Homo sapiens, UniProt P36507)
# [2] = molecular target: Serine/threonine-protein kinase RIO2 (Homo sapiens) (UniProt Q9BVS4)
# [3] = molecular target: T1, Serine/threonine-protein kinase 17A (Homo sapiens) (UniProt Q9UEE5)
# T1 sequence (whole entry): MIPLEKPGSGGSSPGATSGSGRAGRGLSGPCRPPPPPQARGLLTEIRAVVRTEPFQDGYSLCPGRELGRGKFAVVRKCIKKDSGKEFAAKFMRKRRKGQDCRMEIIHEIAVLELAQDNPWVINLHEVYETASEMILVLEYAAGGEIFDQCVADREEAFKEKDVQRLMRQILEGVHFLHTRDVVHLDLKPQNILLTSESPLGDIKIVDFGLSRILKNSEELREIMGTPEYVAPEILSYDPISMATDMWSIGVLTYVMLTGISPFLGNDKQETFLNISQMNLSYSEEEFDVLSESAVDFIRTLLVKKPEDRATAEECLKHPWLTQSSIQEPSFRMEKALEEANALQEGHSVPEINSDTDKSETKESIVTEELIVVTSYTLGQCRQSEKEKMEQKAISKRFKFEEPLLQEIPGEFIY
# [4] = molecular target: Casein kinase I isoform gamma-1 (Homo sapiens) (UniProt Q9HCP0)
# Chain of Casein kinase I isoform gamma-1 (Homo sapiens) (Q9HCP0 whole entry, looked up, canonical isoform): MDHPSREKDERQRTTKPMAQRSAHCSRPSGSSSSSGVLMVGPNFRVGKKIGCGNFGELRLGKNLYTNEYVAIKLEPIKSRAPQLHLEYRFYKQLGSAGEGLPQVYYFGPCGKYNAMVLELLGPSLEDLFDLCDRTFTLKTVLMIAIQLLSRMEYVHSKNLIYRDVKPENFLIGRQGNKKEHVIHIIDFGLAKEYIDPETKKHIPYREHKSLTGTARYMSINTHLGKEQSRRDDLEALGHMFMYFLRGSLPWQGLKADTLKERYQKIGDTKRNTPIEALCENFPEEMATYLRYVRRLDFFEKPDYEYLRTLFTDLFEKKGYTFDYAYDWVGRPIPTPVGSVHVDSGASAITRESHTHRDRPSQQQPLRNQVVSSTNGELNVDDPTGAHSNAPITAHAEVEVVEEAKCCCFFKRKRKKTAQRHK
# [5] = molecular target: T2, Mitogen-activated protein kinase kinase kinase 5 (Homo sapiens) (UniProt Q99683)
# T2 sequence (whole entry): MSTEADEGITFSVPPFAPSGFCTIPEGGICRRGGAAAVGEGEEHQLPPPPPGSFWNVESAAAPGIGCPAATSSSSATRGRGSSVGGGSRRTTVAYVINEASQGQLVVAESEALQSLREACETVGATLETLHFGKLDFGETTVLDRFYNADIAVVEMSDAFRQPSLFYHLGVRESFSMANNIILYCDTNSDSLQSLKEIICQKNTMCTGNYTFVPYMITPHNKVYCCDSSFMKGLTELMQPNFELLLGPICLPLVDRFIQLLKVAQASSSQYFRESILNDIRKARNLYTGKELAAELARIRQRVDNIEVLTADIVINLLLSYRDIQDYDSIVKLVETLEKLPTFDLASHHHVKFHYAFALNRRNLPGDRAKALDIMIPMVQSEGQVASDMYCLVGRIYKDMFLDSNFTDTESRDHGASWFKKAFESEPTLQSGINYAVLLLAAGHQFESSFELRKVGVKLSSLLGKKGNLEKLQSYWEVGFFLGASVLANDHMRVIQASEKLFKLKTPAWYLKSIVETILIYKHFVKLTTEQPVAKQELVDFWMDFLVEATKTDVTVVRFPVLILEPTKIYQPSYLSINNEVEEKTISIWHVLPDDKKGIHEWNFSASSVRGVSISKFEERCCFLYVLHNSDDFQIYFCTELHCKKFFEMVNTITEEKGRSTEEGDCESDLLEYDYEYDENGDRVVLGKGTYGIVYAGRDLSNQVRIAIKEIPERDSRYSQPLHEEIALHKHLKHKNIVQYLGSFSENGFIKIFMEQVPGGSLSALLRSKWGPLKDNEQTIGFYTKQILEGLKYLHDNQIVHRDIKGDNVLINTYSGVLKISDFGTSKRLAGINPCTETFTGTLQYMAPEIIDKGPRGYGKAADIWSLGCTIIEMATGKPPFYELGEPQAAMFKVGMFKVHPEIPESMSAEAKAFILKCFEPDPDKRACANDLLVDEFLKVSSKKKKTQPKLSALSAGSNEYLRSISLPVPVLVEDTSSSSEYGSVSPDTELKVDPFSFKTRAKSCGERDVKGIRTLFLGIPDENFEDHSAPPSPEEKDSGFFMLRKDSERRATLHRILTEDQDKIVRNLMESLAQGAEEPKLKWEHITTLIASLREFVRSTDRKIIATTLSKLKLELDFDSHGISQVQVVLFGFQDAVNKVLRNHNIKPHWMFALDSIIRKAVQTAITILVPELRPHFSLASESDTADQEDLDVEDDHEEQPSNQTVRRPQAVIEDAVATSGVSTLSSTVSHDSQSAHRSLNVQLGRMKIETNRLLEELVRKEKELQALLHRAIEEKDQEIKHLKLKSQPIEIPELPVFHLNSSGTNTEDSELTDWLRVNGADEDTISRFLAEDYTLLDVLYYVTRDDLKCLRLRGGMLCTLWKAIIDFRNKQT
# [6] = molecular target: Calcium/calmodulin-dependent protein kinase type 1G (Homo sapiens) (UniProt Q96NX5)
# Chain of Calcium/calmodulin-dependent protein kinase type 1G (Homo sapiens) (Q96NX5 whole entry): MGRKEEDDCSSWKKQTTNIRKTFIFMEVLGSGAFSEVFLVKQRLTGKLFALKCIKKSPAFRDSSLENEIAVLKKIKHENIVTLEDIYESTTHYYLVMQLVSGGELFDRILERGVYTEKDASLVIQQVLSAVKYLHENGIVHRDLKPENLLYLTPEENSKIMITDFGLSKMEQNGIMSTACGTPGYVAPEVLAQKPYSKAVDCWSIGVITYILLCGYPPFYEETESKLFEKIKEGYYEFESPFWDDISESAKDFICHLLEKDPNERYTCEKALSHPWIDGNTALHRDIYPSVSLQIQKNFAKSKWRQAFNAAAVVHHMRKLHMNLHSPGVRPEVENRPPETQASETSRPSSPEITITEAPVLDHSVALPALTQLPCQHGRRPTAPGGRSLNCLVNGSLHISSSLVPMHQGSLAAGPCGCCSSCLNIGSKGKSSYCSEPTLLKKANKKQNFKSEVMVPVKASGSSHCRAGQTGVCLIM
# [7] = molecular target: Death-associated protein kinase 3 (Homo sapiens) (UniProt O43293)
# [8] = molecular target: Serine/threonine-protein kinase OSR1 (Homo sapiens) (UniProt O95747)
# Chain of Serine/threonine-protein kinase OSR1 (Homo sapiens) (O95747 2-527 limits assumed): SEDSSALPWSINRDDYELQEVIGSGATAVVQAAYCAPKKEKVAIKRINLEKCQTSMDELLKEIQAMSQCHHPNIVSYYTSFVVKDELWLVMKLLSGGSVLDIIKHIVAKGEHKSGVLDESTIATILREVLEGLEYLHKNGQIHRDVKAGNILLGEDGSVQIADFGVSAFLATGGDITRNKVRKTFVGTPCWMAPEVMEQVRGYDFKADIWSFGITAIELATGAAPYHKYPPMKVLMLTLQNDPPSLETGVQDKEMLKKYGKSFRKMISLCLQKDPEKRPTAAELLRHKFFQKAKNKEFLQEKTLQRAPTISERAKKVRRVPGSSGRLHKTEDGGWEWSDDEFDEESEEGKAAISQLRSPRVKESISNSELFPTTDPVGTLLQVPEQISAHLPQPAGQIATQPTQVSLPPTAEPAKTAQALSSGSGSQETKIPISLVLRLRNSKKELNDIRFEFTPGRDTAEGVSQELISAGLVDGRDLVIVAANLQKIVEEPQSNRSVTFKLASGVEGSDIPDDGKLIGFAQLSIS
# [9] = molecular target: Calcium/calmodulin-dependent protein kinase type II subunit beta (Homo sapiens) (UniProt Q13554)
# Chain of Calcium/calmodulin-dependent protein kinase type II subunit beta (Homo sapiens) (Q13554 whole entry): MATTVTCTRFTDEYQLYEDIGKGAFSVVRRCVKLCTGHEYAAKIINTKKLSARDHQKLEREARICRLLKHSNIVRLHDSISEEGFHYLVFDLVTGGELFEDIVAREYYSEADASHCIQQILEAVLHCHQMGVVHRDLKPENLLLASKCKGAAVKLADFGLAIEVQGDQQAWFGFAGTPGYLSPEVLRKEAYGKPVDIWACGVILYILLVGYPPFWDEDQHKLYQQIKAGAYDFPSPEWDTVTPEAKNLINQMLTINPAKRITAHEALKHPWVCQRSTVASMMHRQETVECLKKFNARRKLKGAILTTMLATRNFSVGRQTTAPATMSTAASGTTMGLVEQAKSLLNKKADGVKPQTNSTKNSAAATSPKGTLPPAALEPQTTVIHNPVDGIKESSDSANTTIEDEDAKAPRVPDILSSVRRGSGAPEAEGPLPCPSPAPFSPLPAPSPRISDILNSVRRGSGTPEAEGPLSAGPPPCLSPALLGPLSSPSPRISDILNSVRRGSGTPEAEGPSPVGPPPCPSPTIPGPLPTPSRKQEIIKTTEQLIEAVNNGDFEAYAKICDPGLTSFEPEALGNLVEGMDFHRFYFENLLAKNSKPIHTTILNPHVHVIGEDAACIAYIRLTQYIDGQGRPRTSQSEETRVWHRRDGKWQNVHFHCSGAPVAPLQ
# [10] = molecular target: Mitogen-activated protein kinase 6 (Homo sapiens) (UniProt Q16659)
# [11] = molecular target: Cyclin-dependent kinase-like 1 (Homo sapiens) (UniProt Q00532)
# Chain of Cyclin-dependent kinase-like 1 (Homo sapiens) (Q00532 whole entry): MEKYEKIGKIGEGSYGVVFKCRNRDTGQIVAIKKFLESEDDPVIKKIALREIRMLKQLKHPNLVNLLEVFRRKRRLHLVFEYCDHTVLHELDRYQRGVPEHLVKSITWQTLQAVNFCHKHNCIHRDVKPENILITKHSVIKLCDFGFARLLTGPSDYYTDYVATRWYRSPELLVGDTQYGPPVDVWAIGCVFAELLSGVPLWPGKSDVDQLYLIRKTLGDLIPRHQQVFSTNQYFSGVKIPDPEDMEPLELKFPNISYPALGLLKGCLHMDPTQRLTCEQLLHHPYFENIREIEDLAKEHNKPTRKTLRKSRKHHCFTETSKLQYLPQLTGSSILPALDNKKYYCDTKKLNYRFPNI
# [12] = molecular target: Serine/threonine-protein kinase 26 (Homo sapiens) (UniProt Q9P289)
# Chain of Serine/threonine-protein kinase 26 (Homo sapiens) (Q9P289 2-416 limits assumed): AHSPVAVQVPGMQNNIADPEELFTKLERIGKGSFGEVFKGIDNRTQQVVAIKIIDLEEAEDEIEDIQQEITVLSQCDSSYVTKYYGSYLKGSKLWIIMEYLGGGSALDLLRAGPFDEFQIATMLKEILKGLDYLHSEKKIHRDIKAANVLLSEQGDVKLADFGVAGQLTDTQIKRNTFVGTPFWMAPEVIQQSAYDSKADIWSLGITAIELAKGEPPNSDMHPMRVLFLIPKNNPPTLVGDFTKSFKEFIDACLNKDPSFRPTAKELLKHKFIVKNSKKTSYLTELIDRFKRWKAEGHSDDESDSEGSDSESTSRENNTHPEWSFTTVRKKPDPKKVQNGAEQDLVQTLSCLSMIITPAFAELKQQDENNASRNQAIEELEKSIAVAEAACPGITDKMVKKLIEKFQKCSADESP
# [13] = molecular target: T3, Dual specificity mitogen-activated protein kinase kinase 6 (Homo sapiens) (UniProt P52564)
# T3 sequence (whole entry): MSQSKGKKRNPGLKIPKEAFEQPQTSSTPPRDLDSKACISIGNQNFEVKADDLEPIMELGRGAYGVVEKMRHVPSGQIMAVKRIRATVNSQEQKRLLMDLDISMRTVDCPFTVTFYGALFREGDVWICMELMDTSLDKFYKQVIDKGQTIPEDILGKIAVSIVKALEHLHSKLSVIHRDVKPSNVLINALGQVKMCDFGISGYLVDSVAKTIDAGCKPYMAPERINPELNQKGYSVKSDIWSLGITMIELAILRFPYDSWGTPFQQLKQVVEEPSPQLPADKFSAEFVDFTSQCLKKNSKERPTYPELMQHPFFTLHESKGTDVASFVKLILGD
# [14] = molecular target: Ribosomal protein S6 kinase alpha-3 (Homo sapiens) (UniProt P51812)
# Chain of Ribosomal protein S6 kinase alpha-3 (Homo sapiens) (P51812 whole entry): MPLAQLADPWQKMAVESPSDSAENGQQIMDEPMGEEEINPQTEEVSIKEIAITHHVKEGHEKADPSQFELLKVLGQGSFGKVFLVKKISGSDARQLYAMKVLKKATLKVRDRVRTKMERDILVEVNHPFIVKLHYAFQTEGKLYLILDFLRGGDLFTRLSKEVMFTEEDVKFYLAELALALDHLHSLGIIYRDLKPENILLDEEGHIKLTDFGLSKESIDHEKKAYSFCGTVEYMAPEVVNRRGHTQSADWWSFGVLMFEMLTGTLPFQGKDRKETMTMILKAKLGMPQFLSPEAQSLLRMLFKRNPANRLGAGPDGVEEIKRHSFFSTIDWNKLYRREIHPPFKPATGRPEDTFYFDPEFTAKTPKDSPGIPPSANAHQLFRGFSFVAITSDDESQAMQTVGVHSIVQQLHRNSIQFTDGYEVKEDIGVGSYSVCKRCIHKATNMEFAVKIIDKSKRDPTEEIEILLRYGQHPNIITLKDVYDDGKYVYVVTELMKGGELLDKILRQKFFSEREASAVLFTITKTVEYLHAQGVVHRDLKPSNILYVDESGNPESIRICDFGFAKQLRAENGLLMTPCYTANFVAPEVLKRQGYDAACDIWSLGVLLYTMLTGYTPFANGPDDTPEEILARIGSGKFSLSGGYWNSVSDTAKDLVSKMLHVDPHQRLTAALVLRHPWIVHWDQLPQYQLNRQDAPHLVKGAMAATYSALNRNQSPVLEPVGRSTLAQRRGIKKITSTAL
# Chain of Dual specificity mitogen-activated protein kinase kinase 2 (P36507 whole entry): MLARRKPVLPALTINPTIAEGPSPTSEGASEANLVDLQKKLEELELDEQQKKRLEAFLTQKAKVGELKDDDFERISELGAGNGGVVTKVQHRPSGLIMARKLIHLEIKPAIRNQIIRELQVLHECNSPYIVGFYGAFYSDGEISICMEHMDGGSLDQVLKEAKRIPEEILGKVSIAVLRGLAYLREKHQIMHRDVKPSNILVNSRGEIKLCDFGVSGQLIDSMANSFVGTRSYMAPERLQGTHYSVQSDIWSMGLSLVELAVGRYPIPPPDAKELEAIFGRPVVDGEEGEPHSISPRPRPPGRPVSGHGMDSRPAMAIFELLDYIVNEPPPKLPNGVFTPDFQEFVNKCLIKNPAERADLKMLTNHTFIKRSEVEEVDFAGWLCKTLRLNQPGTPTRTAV
# Chain of Serine/threonine-protein kinase RIO2 (Homo sapiens) (Q9BVS4 whole entry, looked up): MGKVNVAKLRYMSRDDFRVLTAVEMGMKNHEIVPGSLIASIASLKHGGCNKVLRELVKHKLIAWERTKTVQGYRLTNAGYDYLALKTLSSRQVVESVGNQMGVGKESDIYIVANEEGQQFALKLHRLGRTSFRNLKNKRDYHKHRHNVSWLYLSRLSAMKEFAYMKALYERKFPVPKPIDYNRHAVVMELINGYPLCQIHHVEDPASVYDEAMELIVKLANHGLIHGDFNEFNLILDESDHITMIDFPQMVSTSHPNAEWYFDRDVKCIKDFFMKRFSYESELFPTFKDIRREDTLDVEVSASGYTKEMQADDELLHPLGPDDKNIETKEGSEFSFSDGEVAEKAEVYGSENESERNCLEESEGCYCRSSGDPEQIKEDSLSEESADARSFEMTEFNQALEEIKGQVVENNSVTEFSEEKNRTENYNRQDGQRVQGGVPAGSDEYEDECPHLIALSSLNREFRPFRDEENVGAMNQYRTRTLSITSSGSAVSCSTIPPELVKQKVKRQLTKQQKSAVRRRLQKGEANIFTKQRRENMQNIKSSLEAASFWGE
Compound,ΔTm [1] [°C],ΔTm [2] [°C],ΔTm [3] [°C],ΔTm [4] [°C],ΔTm [5] [°C],ΔTm [6] [°C],ΔTm [7] [°C],ΔTm [8] [°C],ΔTm [9] [°C],ΔTm [10] [°C],ΔTm [11] [°C],ΔTm [12] [°C],ΔTm [13] [°C],ΔTm [14] [°C]
O=c1c(O)c(-c2ccc(O)c(O)c2)oc2cc(O)cc(O)c12 [QUERCETIN],2.4,4.2,9.3,3.2,3.4,2.7,7.5,7.4,2.9,0.8,1.6,8.1,3.6,5.6
COc1cc(C[C@H]2C(=O)OC[C@@H]2Cc2ccc(OC)c(OC)c2)ccc1O [ARCTIGENIN],0,-0.2,1.4,0,0.2,-0.3,-0.3,-0.1,0.6,0.2,-0.1,0.2,0.3,-0.2
O=C1NC(=O)c2c1c1c3ccccc3n3c1c1c2c2ccccc2n1C1CCC3O1,-0.2,-0.2,-0.4,0.2,3.9,-0.2,-0.5,0.7,1.2,0.5,-0.4,-0.6,-0.2,0
O=C1C(Cl)=C(N2C(=O)CCC2=O)C(=O)c2ccccc21,-2.4,-1.5,0.5,0.7,-1.1,-1.9,-7.6,-1.4,-1.5,-1.1,-0.5,-2.1,-11,-0.8
CN(C)c1ncnc2nc[nH]c12 [DIMETHYLADENINE],-0.2,0.1,1.5,-0.1,2.8,-0.1,0.9,1.1,0,-0.1,0,0,0.2,0.6
COc1ccc(Cl)cc1NC(=O)Nc1cc(C)nc2ccccc12,0.2,0.6,-0.1,1.4,2.2,4.4,2.3,0.6,0.3,2.1,1.6,–,-0.3,2.2
CC[C@H](CO)Nc1nc(NCc2ccccc2)c2ncn(C(C)C)c2n1 [SELICICLIB],–,0,-0.5,–,1,0,–,1,0.3,-0.4,0.2,0.3,0.2,1.1
Oc1cc(O)cc(/C=C/c2ccc(O)c(O)c2)c1 [PICEATANNOL],0.2,0.6,0.3,0,-0.6,0.5,4.6,1.6,-0.2,0.9,-0.2,1,0.1,–
CC(C)[C@H](CO)Nc1nc(Nc2cc(N)cc(Cl)c2)c2ncn(C(C)C)c2n1 [AMINOPURVALANOL],0.1,4.5,1.6,2,2.4,0.5,3.4,2.6,0.5,1.5,2.7,–,1.3,-0.1
COc1nccc(-c2c(-c3ccc(F)cc3)ncn2[C@H]2CC[C@H](O)CC2)n1,0.2,0,0,0.9,–,0.2,0.4,0.1,–,0.8,-1,2.8,0,0.6
CN1CCc2[nH]c(=S)c(C#N)c(-c3cccs3)c2C1,-0.2,0.3,0.9,0.8,4.7,2.5,0.3,0.8,-0.2,1.2,11.1,–,-0.2,0.7
O=C1Nc2ccccc2/C1=C\c1ccc[nH]1,2.4,3,11,1.4,5.2,1.9,-0.2,2.7,0.6,-0.1,1.4,3.9,3.4,–
COc1ccc2c(c1)/C(=C/c1cnc[nH]1)C(=O)N2 [SU-9516],1.7,1.3,9.8,1,5.4,0.4,2.7,1.3,–,0.2,5.8,2,5.1,–
Cc1nc(N)sc1-c1ccnc(Nc2cccc([N+](=O)[O-])c2)n1,2.7,3.6,1.9,3.9,1.2,4.1,8.7,1.2,–,2.1,3.5,0.4,1.2,5.9
O=C1Cc2c([nH]c3ccc(Br)cc23)-c2ccccc2N1 [KENPAULLONE],-0.3,1.8,5.9,0.3,0.8,0.3,0.4,1.8,0.5,0.9,-0.1,1.5,0.4,–
